pEC50: −log10 of the molar value. Where two headings read alike, the source gives them in different places.
System: HBsAg
Assay: HBsAg assay: inhibition of HBsAg in HepG2.2.15 cells (chemiluminescence immunoassay of supernatant)
Type: cell-based, hepatitis B virus
Details: HBsAg in supernatant at day 6 after exposure to compound, 0.5% DMSO
Procedure: Inhibition of HBsAg was determined in HepG2.2.15 cells. Cells were maintained in culture medium containing 10% fetal calf serum, […], Glutamine, penicillin/streptomycin. Cells were seeded in 96-well collagen-coated plate at a density of 30,000 cells/well. Serially diluted compounds were added to cells next day at the final DMSO concentration of 0.5%. Cells were incubated with compounds for 2-3 days, after which medium was removed. Fresh medium containing compounds was added to cells for additional 3-4 days. At day 6 after exposure of compounds, supernatant was collected, the HBsAg immunoassay (microplate-based chemiluminescence immunoassay kits, CLIA, Autobio Diagnosics Co., Zhengzhou, China, Catalog # CL0310-2) was used to determine the level of HBsAg according to manufactory instruction. Dose-response curves were generated and the EC50 value (effective concentrations that achieved 50% inhibitory effect) were determined using XLfit software. In addition, cells were seeded at a density of 5,000 cells/well for determination of cell viability in the presence and absence of compounds by using CellTiter-Glo reagent (Promega).
Table 1 illustrates EC50 values obtained by the HBsAg assay for selected compounds.

[1] = read-out: sAg EC50, HepG2.2.15 cells
[2] = Hepatitis B virus, HepG2.2.15, 144 h, read-out: sAg EC50, HepG2.2.15 cells

| Structure (SMILES) | pEC50 [1] | pEC50 [2] |
| --- | --- | --- |
| COc1cc(C2CC2c2cnc(-c3ncccn3)nc2-c2ccccc2)ccc1F (single isomer, unassigned) [Example 142, trans-5-(2-(4-Fluoro-3-methoxyphenyl)cyclopropyl)-4-phenyl-2,2′-bipyrimidine] | 5.30 | – |
| Fc1ccc(C2CC2c2cnc(-c3ncccn3)nc2)cc1OCC(F)F (single isomer, unassigned) [Example 27, trans-5-(2-(3-(2,2-Difluoroethoxy)-4-fluorophenyl)cyclopropyl)-2,2′-bipyrimidine] | 6.20 | – |
| COCCCn1cnc2cc([C@@H]3C[C@H]3c3cnc(-c4ncccn4)nc3)cc(F)c21 (relative stereo) [Example 273, trans-5-(2-([2,2′-Bipyrimidin]-5-yl)cyclopropyl)-7-fluoro-1-(3-methoxypropyl)-1H-benzo[d]imidazole] | – | 7.37 |
| COc1cc([C@@H]2C[C@H]2c2cnc(-c3ccccn3)nc2)cc(OC)c1OC (relative stereo) [Example 176, trans-2-(Pyridin-2-yl)-5-(2-(3,4,5-trimethoxyphenyl)cyclopropyl)pyrimidine] | – | 5.70 |
| COc1cc(C2CC2c2cnc(-c3ncccn3)nc2)c(F)cc1Cl (single isomer, unassigned) [Example 87, trans-5-(2-(4-Chloro-2-fluoro-5-methoxyphenyl)cyclopropyl)-2,2′-bipyrimidine] | 6.85 | – |
| Fc1ccc(C2CN(c3cc([C@@H]4C[C@H]4c4cnc(-c5ncccn5)nc4)cc(F)c3F)C2)cc1F (relative stereo) [Example 214, trans-5-(2-(3-(3-(3,4-difluorophenyl)azetidin-1-yl)-4,5-difluorophenyl)cyclopropyl)-2,2′-bipyrimidine] | – | 7.34 |
| Fc1cc(C2CC2c2cnc(-c3ncccn3)nc2)cc(N2CCCC2)c1F (single isomer, unassigned) [Example 93, trans-5-(2-(3,4-Difluoro-5-(pyrrolidin-1-yl)phenyl)cyclopropyl)-2,2′-bipyrimidine] | 7.72 | – |
| Fc1cc([C@@H]2C[C@H]2c2cnc(-c3ncccn3)nc2)cc(F)c1OC1CC2(COC2)C1 (relative stereo) [Example 242, trans-5-(2-(4-((2-Oxaspiro[3.3]heptan-6-yl)oxy)-3,5-difluorophenyl)cyclopropyl)-2,2′-bipyrimidine] | – | 6.41 |
| CN(CCO)c1cc([C@@H]2C[C@H]2c2cnc(-c3ncccn3)nc2)cc(F)c1F (relative stereo) [Example 244, trans-2-((5-(2-([2,2′-Bipyrimidin]-5-yl)cyclopropyl)-2,3-difluorophenyl)(methyl)amino)ethan-1-ol] | – | 7.04 |
| Fc1ccc([C@@H]2C[C@H]2c2ccnc(-c3ncccn3)n2)cc1F (relative stereo) [Example 4, trans-4-(2-(3,4-Difluorophenyl)cyclopropyl)-2,2′-bipyrimidine] | – | 5.15 |
| COc1cc2ncn(-c3cc([C@@H]4C[C@H]4c4cnc(-c5ncccn5)nc4)cc(F)c3F)c2cc1OC (relative stereo) [Example 237, trans-1-(5-(2-([2,2′-Bipyrimidin]-5-yl)cyclopropyl)-2,3-difluorophenyl)-5,6-dimethoxy-1H-benzo [d]imidazole] | – | 6.70 |
| CCOC(=O)C1C(c2cnc(-c3ncccn3)nc2)C1c1cc(F)c(F)c(OC)c1 (stereo not drawn) [Example 263, trans-Ethyl 2-([2,2′-bipyrimidin]-5-yl)-3-(3,4-difluoro-5-methoxyphenyl)cyclopropane-1-carboxylate] | – | 4.92 |
| COc1cc([C@@H]2C[C@H]2c2cnc(-c3ncccn3)nc2)ccc1C(F)(F)F (relative stereo) [Example 153, trans-5-(2-(3-Methoxy-4-(trifluoromethyl)phenyl)cyclopropyl)-2,2′-bipyrimidine] | – | 6.72 |
| c1cnc(-c2ncc([C@@H]3C[C@H]3c3ccc4ccccc4c3)cn2)nc1 (relative stereo) [Example 167, trans-5-(2-(Naphthalen-2-yl)cyclopropyl)-2,2′-bipyrimidine] | – | 6.74 |
